# Columns and labels:
# Cathepsin K = biological target: T1, Cathepsin K (Homo sapiens, UniProt P43235); experiment: Cathepsin K inhibition assay (fluorogenic peptide substrate); selectivity ratio vs cathepsin S; assay type: biochemical; conditions: ratio of cathepsin K inhibition constant to cathepsin S inhibition constant; Table II
# T1 sequence (P43235 115-329): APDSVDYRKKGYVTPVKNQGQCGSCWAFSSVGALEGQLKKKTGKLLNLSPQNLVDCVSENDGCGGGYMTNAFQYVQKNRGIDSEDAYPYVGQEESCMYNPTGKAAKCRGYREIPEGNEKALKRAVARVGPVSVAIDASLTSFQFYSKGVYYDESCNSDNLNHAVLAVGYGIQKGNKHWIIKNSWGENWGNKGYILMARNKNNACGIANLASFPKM
# How it was run: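 Inhibition constants for competitive inhibitors come from apparent values fitted to enzyme progress curves. Substrate, acetyl-Lys-His-Pro-Lys-aminocarbamoylcoumarin (40 μM final), starts the reaction; fluorescence rise read at 380 nm excitation, 450 nm emission. Selectivity ratio: other cathepsin constant over cathepsin S constant.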
# Cathepsin S = Cathepsin S (Homo sapiens, UniProt P25774); experiment: Cathepsin S inhibition assay (fluorogenic peptide substrate); assay type: biochemical; conditions: Table II, compounds of Formula I; read-out: Ki Cat. S
# How it was run: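 Ki values come from nonlinear fitting of inhibited hydrolysis rates, taking free and total inhibitor concentrations as equal. Rates measured as rising fluorescence at 380/450 nm after reaction start with 50 μM final acetyl-HPVK-aminocarbamoylcoumarin.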
# Chain of Cathepsin S (P25774 115-331, species assumed): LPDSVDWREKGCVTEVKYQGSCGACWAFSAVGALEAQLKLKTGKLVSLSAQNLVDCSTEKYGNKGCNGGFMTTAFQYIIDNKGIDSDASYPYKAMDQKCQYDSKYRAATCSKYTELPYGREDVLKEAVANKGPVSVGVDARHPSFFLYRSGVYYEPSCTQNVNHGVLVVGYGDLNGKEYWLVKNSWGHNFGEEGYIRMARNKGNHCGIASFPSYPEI
Selectivity for Cat. S over Cat. K (Cathepsin K),Ki (Cathepsin S) [nM],Structure (SMILES)
"+++ (+++, >1000)",< 1000,"COc1ccc(NCCNC(=O)[C@H](Cc2ccc([N+](=O)[O-])cc2)NC(=O)c2cccc(C)c2)cc1 [Compound 244, (S)-N-[1-[2-(4-Methoxy-phenylamino)-ethylcarbamoyl]-2-(4-nitro-phenyl)-ethyl]-3-methyl-benzamide]"
"++ (++, >100)",< 1000,"COc1ccc(NCCNC(=O)[C@H](Cc2ccc(-c3ccccc3[N+](=O)[O-])cc2)NC(=O)c2cccc(C)c2)cc1 [Compound 273, (S)-N-[1-[2-(4-Methoxy-phenylamino)-ethylcarbamoyl]-2-(2′-nitro-biphenyl-4-yl)-ethyl]-3-methyl-benzamide]"
"+++ (+++, >1000)",< 100,"COc1ccc(NCCNC(=O)[C@H](CC2CCCCC2)NC(=O)c2cccc(C(F)(F)F)c2F)cc1 [Compound 166, (S)-N-{2-Cyclohexyl-1-[2-(4-methoxy-phenylamino)-ethylcarbamoyl]-ethyl}-2-fluoro-3-trifluoromethyl-benzamide]"
"++ (++, >100)",< 100,"O=C(N[C@@H](CC1CCCCC1)C(=O)NCCNc1ccc(F)cc1)c1ccoc1 [Compound 272, Furan-3-carboxylic acid (S)-{2-cyclohexyl-1-[2-(4-fluoro-phenylamino)-ethylcarbamoyl]-ethyl}-amide]"
"++ (++, >100)",< 100,"COc1ccc(NCCNC(=O)[C@H](CC2CCCCC2)NC(=O)c2cc(C(F)(F)F)ccc2F)cc1 [Compound 154, (S)-N-{2-Cyclohexyl-1-[2-(4-methoxy-phenylamino)-ethylcarbamoyl]-ethyl}-2-fluoro-5-trifluoromethyl-benzamide]"
"++ (++, >100)",< 1000,"COc1ccc(NCCNC(=O)[C@H](Cc2ccccc2)NC(=O)Nc2ccc(C(C)=O)cc2)cc1 [Compound 103, (S)-2-[3-(4-Acetyl-phenyl)-ureido]-N-[2-(4-methoxy-phenylamino)-ethyl]-3-phenyl-propionamide]"
"++ (++, >100)",< 100,"O=C(NCCNc1ccc(F)cc1)[C@H](CC1CCCCC1)NC(=O)C1(c2ccccc2)CC1 [Compound 319, 1-Phenyl-cyclopropanecarboxylic acid (S)-{2-cyclohexyl-1-[2-(4-fluoro-phenylamino)-ethylcarbamoyl]-ethyl}-amide]"
"+++ (+++, >1000)",< 100,"COc1ccc(NCCNC(=O)[C@H](Cc2ccc(Oc3cccc(C)c3)cc2)NC(=O)c2cccc(C)c2)cc1 [Compound 267, (S)-N-[1-[2-(4-Methoxy-phenylamino)-ethylcarbamoyl]-2-(4-m-tolyloxy-phenyl)-ethyl]-3-methyl-benzamide]"

# The remaining lines, values behind:
Structure (SMILES),Selectivity for Cat. S over Cat. K (Cathepsin K),Ki (Cathepsin S) [nM]
"COc1ccc(NCCNC(=O)[C@H](CC2CCCCC2)NC(=O)c2cnn(-c3ccc(OC)cc3)c2C)cc1 [Compound 162, (S)-1-(4-Methoxy-phenyl)-5-methyl-1H-pyrazole-4-carboxylic acid {2-cyclohexyl-1-[2-(4-methoxy-phenylamino)-ethylcarbamoyl]-ethyl}-amide]","+ (+, >10)",< 100
"COc1ccc(NCCNC(=O)[C@H](Cc2ccc(-c3cccnc3)cc2)NC(=O)c2cccc(C)c2)cc1 [Compound 274, (S)-N-[1-[2-(4-Methoxy-phenylamino)-ethylcarbamoyl]-2-(4-pyridin-3-yl-phenyl)-ethyl]-3-methyl-benzamide]","+++ (+++, >1000)",< 100
"COc1ccc(NCCNC(=O)[C@H](Cc2ccccc2)NC(=O)c2cccc(Br)c2)cc1 [Compound 78, (S)-3-Bromo-N-{1-[2-(4-methoxy-phenylamino)-ethylcarbamoyl]-2-phenyl-ethyl}-benzamide]","+ (+, >10)",< 100
"COc1ccc(NCCNC(=O)[C@H](Cc2ccc(Oc3cc(Cl)cc(Cl)c3)cc2)NC(=O)c2cccc(C)c2)cc1 [Compound 18, (S)-N-{2-[4-(3,5-Dichloro-phenoxy)-phenyl]-1-[2-(4-methoxy-phenylamino)-ethylcarbamoyl]-ethyl}-3-methyl-benzamide]","+ (+, >10)",< 10000
"C[C@@H](C(=O)N[C@@H](CC1CCCCC1)C(=O)NCCNc1ccc(OC(F)(F)F)cc1)c1ccccc1 [Compound 122, N-{2-cyclohexyl-1-(S)-[2-(4-trifluoromethoxy-phenylamino)-ethylcarbamoyl]-ethyl}-2-(R)-phenyl-propionamide]","+++ (+++, >1000)",< 100
"COc1ccc(NCCNC(=O)[C@H](Cc2ccccc2)NC(=O)c2cc(C)c(C)cc2C)cc1 [Compound 30, (S)-N-{1-[2-(4-Methoxy-phenylamino)-ethylcarbamoyl]-2-phenyl-ethyl}-2,4,5-trimethyl-benzamide]","+ (+, >10)",< 100
"COc1ccc(NCCNC(=O)[C@H](CC2CCCCC2)NC(=O)c2cnn(-c3ccc(Cl)cc3)c2C(F)(F)F)cc1 [Compound 116, (S)-1-(4-Chloro-phenyl)-5-trifluoromethyl-1H-pyrazole-4-carboxylic acid {2-cyclohexyl-1-[2-(4-methoxy-phenylamino)-ethylcarbamoyl]-ethyl}-amide]","+++ (+++, >1000)",< 100
"O=C(N[C@@H](CC1CCCCC1)C(=O)NCCNc1ccc(OC(F)(F)F)cc1)c1ccc(-c2ccccc2)cc1 [Compound 234, (S)-Biphenyl-4-carboxylic acid {2-cyclohexyl-1-[2-(4-trifluoromethoxy-phenylamino)-ethylcarbamoyl]-ethyl}-amide]","+ (+, >10)",< 100
"COc1ccc(NCCNC(=O)C(NC(=O)c2cccc(C)c2)c2cccc3ccccc23)cc1 (stereo not shown) [Compound 218, N-{[2-(4-Methoxy-phenylamino)-ethylcarbamoyl]-naphthalen-1-yl-methyl}-3-methyl-benzamide]","+++ (+++, >1000)",< 1000
"COc1ccc(NCCNC(=O)[C@H](Cc2ccc(Oc3ccc(Cl)cc3)cc2)NC(=O)c2cccc(C)c2)cc1 [Compound 300, (S)-N-{2-[4-(4-Chloro-phenoxy)-phenyl]-1-[2-(4-methoxy-phenylamino)-ethylcarbamoyl]-ethyl}-3-methyl-benzamide]","++ (++, >100)",< 100
"COc1ccc(NCCNC(=O)[C@H](Cc2ccc(Br)cc2)NC(=O)c2cccc(C)c2)cc1 [Compound 241, (S)-N-{2-(4-Bromo-phenyl)-1-[2-(4-methoxy-phenylamino)-ethylcarbamoyl]-ethyl}-3-methyl-benzamide]","+++ (+++, >1000)",< 100
"COc1ccc(NCCNC(=O)[C@H](Cc2ccc(Cl)cc2)NC(=O)c2ccc(-c3cccc(C(F)(F)F)c3)o2)cc1 [Compound 4, N-((S)-1-(2-(4-methoxyphenylamino)ethylcarbamoyl)-2-(4-chlorophenyl)ethyl)-5-(3-(trifluoromethyl)phenyl)furan-2-carboxamide]","+++ (+++, >1000)",< 100
"COc1ccc(NCCNC(=O)[C@H](Cc2ccc(OCc3ccccc3)cc2)NC(=O)c2cccc(C)c2)cc1 [Compound 247, (S)-N-{2-(4-Benzyloxy-phenyl)-1-[2-(4-methoxy-phenylamino)-ethylcarbamoyl]-ethyl}-3-methyl-benzamide]","+++ (+++, >1000)",< 100
"COc1ccc(NCCNC(=O)[C@H](CCc2ccccc2)NC(=O)c2ccc(-c3cccc(C(F)(F)F)c3)o2)cc1 [Compound 1, N-((S)-1-(2-(4-methoxyphenylamino)ethylcarbamoyl)-3-phenylpropyl)-5-(3-(trifluoromethyl)phenyl)furan-2-carboxamide]","++ (++, >100)",< 1000
"Cc1ccc(C(C)C(=O)N[C@@H](CC2CCCCC2)C(=O)NCCNc2ccc(F)cc2)cc1 (stereo partly drawn) [Compound 309, N-{2-cyclohexyl-1-(S)-[2-(4-fluoro-phenylamino)-ethylcarbamoyl]-ethyl}-2-p-tolyl-propionamide]","++ (++, >100)",< 100
"Cc1ccc(-c2ccc(C(=O)N[C@@H](CC3CCCCC3)C(=O)NCCNc3ccc(OC(F)(F)F)cc3)s2)cc1 [Compound 42, 5-p-Tolyl-thiophene-2-carboxylic acid (S)-{2-cyclohexyl-1-[2-(4-trifluoromethoxy-phenylamino)-ethylcarbamoyl]-ethyl}-amide]","+ (+, >10)",< 1000
"COc1ccc(NCCNC(=O)[C@H](CC2CCCCC2)NC(=O)c2ccc(C(F)(F)F)cc2F)cc1 [Compound 169, (S)-N-{2-Cyclohexyl-1-[2-(4-methoxy-phenylamino)-ethylcarbamoyl]-ethyl}-2-fluoro-4-trifluoromethyl-benzamide]","++ (++, >100)",< 1000
"O=C(Cc1ccc(Cl)cc1)N[C@@H](CC1CCCCC1)C(=O)NCCNc1ccc(F)cc1 [Compound 305, 2-(S)-[2-(4-Chloro-phenyl)-acetylamino]-3-cyclohexyl-N-[2-(4-fluoro-phenylamino)-ethyl]-propionamide]","++ (++, >100)",< 100

# From patent US7109243B2 (IRM LLC, priority 2003, dated 2006)
